Consider four substances from patent US20120034608A1, “MICRORNA AS A BIOMARKER OF PANCREATIC ISLET BETA-CELL ENGAGEMENT” (Merck Sharp & Dohme Corp., priority 2009, published 2012).

Holding throughout (type): cell-based, rat
In data set [1] the test system is INS-1 832/3 cells. Briefly: TAQMAN real-time quantitative RT-PCR of miRNA expression in INS-1 832/3 cells. Particulars: for increase of the corresponding miRNA transcripts after transfection of precursor: overexpression experiments, TAQMAN real-time quantitative RT-PCR. The method, then:
INS-1 832/3 and 832/13 cells were maintained in RPMI 1640 with 10% FBS and 11 mM glucose. For GLP-1 treatment, GLP-1 (7-37) amide (ABCHEM) was added in the media in the presence of 16 mM glucose for 24 hours. Total RNA was extracted with TRIZOL as in Example 1. Rat islet isolation and treatment was as follows. Pancreatic islets of Langerhans were isolated from the pancreas of normal Sprague-Dawley rats (Charles River, Ind.) by collagenase digestion and discontinuous Ficoll gradient separation (15). Islets were cultured for 2 hours in RPMI 1640 medium with 11 mM glucose for recovery from the isolation process. Then 100-200 islets were treated with 50 nM GLP-1 in the media with 11 mM glucose for 24 hours. RNA was extracted with TRIZOL as in Example 1 for quantification of microRNA species.
Fluorogenic TAQMAN detector probes specific for miR-132 (Cat# TM457), miR-212 (Cat# TM515), miR-375 (Cat#TM564), and miR-217 (Cat#1133) were purchased from Applied Biosystems (Foster City, Calif.). The TAQMAN RT-PCR reactions were performed according to the manufacturer's instructions.
Relative miRNA levels for the miRNAs of interest were determined by real-time reverse transcription reaction using the ABI PRISM 7900 Sequence Detection System from Applied Biosystems (Foster City, Calif.) according to the manufacturer's protocol. Briefly, 10 ng of total RNA was mixed with 1 U MultiScribe Reverse Transcriptase, 0.25 U RNase Inhibitor, 3 μL hairpin-looped miRNA-specific RT primer, 1 mM dNTPs and 1× Reverse Transcription Buffer in a total volume of 15 μL. The mixture was incubated at 16° C. for 30 minutes, 42° C. for another 30 minutes, and the reaction was stopped by heating to 85° C. for 5 minutes. Real time PCR reaction was set up in 20 μL volume with 1.33 μL first strand cDNA, 1× TAQMAN MicroRNA Assay Mix and 1× TAQMAN Universal PCR Master Mix. After activation of the AMPLITAQ Gold DNA polymerase at 95° C. for 10 minutes, 40 cycles of two-step PCR were run (95° C. for 15 seconds and 60° C. for 60 seconds). Data were collected and analyzed with SDS v.2.2.2 software (Applied Biosystems). 4.5S RNA or U6 probe (Applied Biosystems) was used as a reference to determine the relative abundance of each miRNA in different samples. TAQMAN RT-PCR was performed according the manufacturer's instructions.
The absolute miRNA levels were determined by reverse transcription reactions in GeneAmp PCR system 9700 followed by amplification using the ABI PRISM 7900HT Sequence Detection System from Applied Biosystems (Foster City, Calif.) through 40 cycles. 4.5S RNA (H) probe (Cat#TM1716) or U6 (Cat#TM1973) was used as reference to determine the relative abundance of each miRNA in different samples. The induction of miR-132 and miR-212 expression by GLP-1 started around 4 hour post-GLP-1 treatment, peaked at 24 hours and was sustained up to 48 hours (FIG. 2).
(In general: In qPCR the cycle at which signal appears reflects the starting amount.)

For data set [2], the system named is INS-1 832/13 cells. Briefly: LANCE cAMP assay in INS-1 832/13 cells. Particulars: for cAMP levels: cells overexpressing the precursor vs scramble control. From the text:
(§1) We overexpressed the precursors of miR-132 and miR-212 to evaluate their possible contribution to β-cell function. MicroRNA miR-375 was included as a control as it been reported to have an inhibitory effect on GDIS (Poy et al., Nature 432: 226-230 (2004)). Chemically modified Pre-miR™ miRNA precursor molecules and Anti-miR™ miRNA inhibitors were purchased from Ambion (Foster City, Calif.). miRCURY LNA™ microRNA knockdown oligonucleotides were purchased from Exiqon (Woburn, Mass.). The oligonucleotide molecules were delivered to the cells by the Nucleofector Device (Amaxa, Gaithersburg, Md.). In brief, INS-1 cells were trypsinized, centrifuged, and resuspended in 100 μl Nucleofector solution V. Then 100-500 pmole RNA oligonucleotides were transfected to 3-million cells at the concentration of 1-5 μM with the Amaxa Nucleofector Device. Scramble controls from the vendors were used with the same transfection method. After electroporation, the cells were transferred to regular culture medium and then split into replicates in 96-well plates. Insulin secretion assay or LANCE cAMP assay were performed 48 hours post electroporation.
(§2) For the Lance cAMP assay, INS1 832/3 and 832/13 cells were grown to near confluency in flasks. 9000 cells were incubated with GLP-1 or Exendin-4 in stimulation buffer at concentrations as indicated in figure legends for 1 hour at 37° C. cAMP levels were measured using LANCE cAMP assay kit in 384-well format according to manufacture's protocol (Perkin Elmer, Waltham, Mass.). Counts were calculated to cAMP concentrations using a cAMP standard curve. Each condition was measured in quadruplicate.

The subject of data set [3] is INS-1 832/3 cells. As to the kind of experiment: LANCE cAMP assay in INS-1 832/3 cells. Particulars: one hour stimulation, 5.5 mM glucose. The method, then: as §2
(In general: In TR-FRET formats the signal depends on donor and acceptor labels being close together.)

Data set [4] deals with INS-1 832/3 cells. As to the kind of experiment: glucose dependent insulin secretion (GDIS) assay in INS-1 832/3 cells. Particulars: for basal insulin secretion at low glucose: 2 mM glucose; for basal insulin secretion at low glucose / insulin release stimulated by KCl / insulin release as percentage of insulin secretion of intracellular insulin content / glucose-dependent insulin secretion (GDIS): 48 hours post-transfection; for GLP-1 potentiation of GDIS: 16 mM glucose + 10 nM GLP-1, 48 hour post transfection; for GLP-1 potentiation of GDIS / glucose-dependent insulin secretion (GDIS): vs scramble control; for insulin release stimulated by KCl: 30 mM KCl; for glucose-dependent insulin secretion (GDIS): two hour incubation in KRB; for insulin content: cell lysates, normalized to total protein.
Source text: as §1
(§3) INS-1 cell glucose dependent insulin secretion (GDIS) assay was performed as follows. The GDIS assay was performed with cells grown to near confluency in 96-well plates. Prior to the assay, cells were washed once with PBS and pre-incubated for two hours in freshly prepared Krebs-Ringer Bicarbonate (KRB) medium without glucose. The medium were then replaced with KRB with 2, 8 or 16 mM glucose or along with 10 nM GLP-1. The cells were incubated for another two hours in a CO2 incubator. The media was then removed at the end of incubation, and assayed for insulin levels by Ultra-sensitive Rat Insulin ELISA kit (ALPCO, Salem, N.H.) or insulin immunoassay by Gyrolab workstation (GYROS AB, Uppsala, Sweden). Intracellular insulin was extracted by acid ethanol method for measuring intracellular insulin content. Total protein was measured by Pierce 660 nm Protein Assay from Pierce Biotechnology, Inc. (Rockford, Ill.).

Data set [5] deals with INS-1 832/13 cells. As to the kind of experiment: glucose dependent insulin secretion (GDIS) assay in INS-1 832/13 cells. Particulars: transfected cells vs scramble control.
Source text: as §1, §3

In data set [6] the test system is INS-1 832/3 cells. Briefly: TAQMAN quantification of insulin (Ins1) transcripts in INS-1 832/3 cells. Particulars: normalized to β-actin.
Source text: as §1
We further measured the insulin content and found it was unchanged by miR-132 or miR-212 overexpression (FIG. 7B). […] Furthermore, we measured insulin transcripts by TAQMAN analysis in cells over-expressing these microRNA molecules. Ins1 TAQMAN probe from Applied Biosystems (Foster City, Calif.) was used to measure insulin transcript levels and normalized to β-actin. […] In this series of experiments, miR-132, miR-212 and miR-375 transcripts were increased by about 1000-fold, 2000-fold, and 8-fold, respectively, as assayed by TAQMAN real-time quantitative RT-PCR.

Where [7] appears, read: 50 nM GLP-1, 50 nM Exendin-4, 5 μM IBMX, 1 μM Foskolin (FIG. 6A).

In the case of “Exendin-4: GLP-1 analog, cAMP raising agent”, in the data set with INS-1 832/3 cells [1] (setting [7]), the miR-132 expression entry is “significantly increased”, the miR-212 expression result is given as “significantly increased” and the miR-375 expression entry is listed as “remained unchanged”. The cAMP accumulation result in the data set on INS-1 832/13 cells [2] (one hour stimulation, 5.5 mM glucose) was “loss of such response”. Also, the cAMP accumulation entry with INS-1 832/3 cells [3] is “dose-dependent accumulation”.
Regarding “miR-132: chemically modified Pre-miR miRNA precursor molecule (Ambion) transfected to overexpress miR-132 (guide UAACAGUCUACAGCCAUGGUCG; chemically modified Pre-miR precursor, pattern not given here)”, the “increase of the corresponding miRNA transcripts after transfection of precursor” value (“increase” for short) in the data set on INS-1 832/3 cells [1] is given as “about 1000 fold”. In addition, in the data set on INS-1 832/3 cells [4], the “basal insulin secretion at low glucose” value is on record as “unchanged”, the “GLP-1 potentiation of GDIS” value is listed as “robustly increased”, the “insulin release stimulated by KCl” value is recorded as “significantly enhanced” and the “insulin release as percentage of insulin secretion of intracellular insulin content” value (shortened to “insulin release as percentage”) was “significantly increased”. Further, in the data set with INS-1 832/3 cells [4], the “glucose-dependent insulin secretion (GDIS)” value is given as “significantly enhanced” and the insulin content result is reported as “unchanged”. Moreover, the cAMP levels result with INS-1 832/13 cells [2] is reported as “no changes”. Also, in the data set on INS-1 832/13 cells [5], the “effect of GLP-1 (GLP-1 potentiation)” value is “augmented” and the “insulin secretion (GDIS)” value is listed as “significantly increased”. Further, in the data set with INS-1 832/3 cells [6], the “insulin (Ins1) transcripts” value is “no effect”.
On to “miR-212: chemically modified Pre-miR miRNA precursor molecule (Ambion) transfected to overexpress miR-212 (guide UAACAGUCUCCAGUCACGGCC; chemically modified Pre-miR precursor, pattern not given here)”, for which the “increase” value with INS-1 832/3 cells [1] is ~2000 fold. For the same substance, in the data set with INS-1 832/3 cells [4], the “basal insulin secretion at low glucose” value is given as “unchanged”, the “GLP-1 potentiation of GDIS” value is “enhanced”, the “insulin release stimulated by KCl” value is on record as “significantly enhanced” and the “insulin release as percentage” value is given as “significantly increased”. Moreover, in the data set with INS-1 832/3 cells [4], the “glucose-dependent insulin secretion (GDIS)” value is on record as “significantly enhanced” and the insulin content entry is listed as “unchanged”. Further, the cAMP levels entry with INS-1 832/13 cells [2] is given as “no changes”. In addition, in the data set with INS-1 832/13 cells [5], the “effect of GLP-1 (GLP-1 potentiation)” value is reported as “augmented” and the “insulin secretion (GDIS)” value is listed as “significantly increased”. The “insulin (Ins1) transcripts” value with INS-1 832/3 cells [6] is listed as “no effect”.
For “miR-375: chemically modified Pre-miR miRNA precursor molecule (Ambion) transfected to overexpress miR-375, control (guide UUUGUUCGUUCGGCUCGCGUGA; chemically modified Pre-miR precursor, pattern not given here)”, the “increase” value in the data set with INS-1 832/3 cells [1] was ~8 fold. Also, in the data set on INS-1 832/3 cells [4], the “GLP-1 potentiation of GDIS” value is reported as “not”, the “insulin release as percentage” value is given as “decreased”, the “glucose-dependent insulin secretion (GDIS)” value was “significantly suppressed” and the insulin content entry is “reduction”. Further, the “insulin (Ins1) transcripts” value in the data set on INS-1 832/3 cells [6] is “moderately down-regulated”.
